How the values were obtained:
Format in all cases: cell-based
SF-295 = assay: SRB growth assay, SF-295; settings: Homo sapiens, SF-295 (CNS), 48 hours, read-out: Percent viability
Description: (§1) Tested cell lines included, Leukemia: CCRF-CEM, HL-60(TB), MOLT-4, RPMI-8226 and SR; Non-Small Cell Lung: A549/ATCC, EKVX, HOP-62, HOP-92, NCI-H226, NCI-H23, NCI-H322M, NCI-H460 and NCI-H522; Colon: COLO 205, HCC-2998, HCT-116, HCT-15. HT29, KM12 and SW-620; CNS: SF-268, SF-295, SF-539, SNB-19, SNB-75 and U251; Melanoma: LOX IMVI, MALME-3M, M14, MDA-MB-435, SK-MEL-2, SK-MEL-28, SK-MEL-5, UACC-257 and UACC-62; Ovarian: IGR-OV1, OVCAR-3, OVCAR-4, OVCAR-5, OVCAR-8. NCI/ADR-RES and SK-OV-3; Renal: 786-0, A498, ACHN, CAKI-1, RXF 393, SN12C, TK-10 and UO-31; Prostate: DU-145 and PC-3; and Breast: MCF7, MDA-MB-231/ATCC, MDA-MB-468, HS 578T, BT-549 and T-47D.
(§2) The cells were cultured in RPMI1640 media supplemented with 10% Fetal Bovine Serum (FBS), 2 mM glutamine and with 5% CO2 and 37° C. For experiment, 5% of FBS and 50 ug/mL of gentamycin were used. Test articles were 10 μM of NUCL 381-3 or 10 μM NUCL 383-3. The positive control was 10 μM of doxorubicin.
(§3) Cells were plated in 96 well plates. The cells were plated in triplicate. Cells were plated at the densities based on NCI recommendation. Time zero cells (Tz) were fixed the following day with 50% or 80% ice cold Trichloracetic acid (TCA) and washed 5× with water. At 48 hours post addition of treatments, all remaining plates were fixed in 80% ice cold Trichloracetic acid (TCA) and washed 5× with water. After drying, one hundred microliters of 0.4% Sulphorhodamine B (SRB) in 1% acetic acid was added to each plate including the Tzero plate and incubated for 10 minutes at room temperature. After 5 additional washes with 1% acetic acid, plates were allowed to dry. One hundred microliters of Trizma base was added to each well and plates were read at 515 nm.
(§4) Percent of growth was calculated by the following formulas: [Ti/C]×100, where: Tz=absorbance readings for wells at time zero without treatment; C=absorbance readings of untreated cells (without treatment); and Ti=absorbance reading of wells with treatment.

NCI-H226 = assay: SRB growth assay, NCI-H226; settings: Homo sapiens, NCI-H226 (Non-Small Cell Lung), 48 hours, read-out: Percent viability
Description: as §1, §2, §3, §4

SK-OV-3 = assay: SRB growth assay, SK-OV-3; settings: Homo sapiens, SK-OV-3 (Ovarian), 48 hours, read-out: Percent viability
Description: as §1, §2, §3, §4

HS 578T = assay: SRB growth assay, HS 578T; settings: Homo sapiens, HS 578T (Breast), 48 hours, read-out: Percent viability
Description: as §1, §2, §3, §4

MDA-MB-231 = assay: SRB growth assay, MDA-MB-231; settings: Homo sapiens, MDA-MB-231 (Breast), 48 hours, read-out: Percent viability
Description: as §1, §2, §3, §4

HL-60(TB) = assay: SRB growth assay, HL-60(TB); settings: Homo sapiens, HL-60(TB) (Leukemia), 48 hours, read-out: Percent viability
Description: as §1, §2, §3, §4

T-47D = assay: SRB growth assay, T-47D; settings: Homo sapiens, T47D, T-47D (Breast), 48 hours, read-out: Percent viability
Description: as §1, §2, §3, §4

ACHN = assay: SRB growth assay, ACHN; settings: Homo sapiens, ACHN (Renal), 48 hours, read-out: Percent viability
Description: as §1, §2, §3, §4

RXF 393 = assay: SRB growth assay, RXF 393; settings: Homo sapiens, RXF 393 (Renal), 48 hours, read-out: Percent viability
Description: as §1, §2, §3, §4

MCF7 = assay: SRB growth assay, MCF7; settings: Homo sapiens, MCF7 (Breast), 48 hours, read-out: Percent viability
Description: as §1, §2, §3, §4

HCT-15 = assay: SRB growth assay, HCT-15; settings: Homo sapiens, HCT-15 (Colon), 48 hours, read-out: Percent viability
Description: as §1, §2, §3, §4

EKVX = assay: SRB growth assay, EKVX; settings: Homo sapiens, EKVX (Non-Small Cell Lung), 48 hours, read-out: Percent viability
Description: as §1, §2, §3, §4

A549 = assay: SRB growth assay, A549; settings: Homo sapiens, A549 (Non-Small Cell Lung), 48 hours, read-out: Percent viability
Description: as §1, §2, §3, §4

NCI-H322M = assay: SRB growth assay, NCI-H322M; settings: Homo sapiens, NCI-H322M (Non-Small Cell Lung), 48 hours, read-out: Percent viability
Description: as §1, §2, §3, §4

UO-31 = assay: SRB growth assay, UO-31; settings: Homo sapiens, UO-31 (Renal), 48 hours, read-out: Percent viability
Description: as §1, §2, §3, §4

K-562 = assay: SRB growth assay, K-562; settings: Homo sapiens, K562, K-562 (Leukemia), 48 hours, read-out: Percent viability
Description: as §1, §2, §3, §4

MDA-MB-468 = assay: SRB growth assay, MDA-MB-468; settings: Homo sapiens, MDA-MB-468 (Breast), 48 hours, read-out: Percent viability
Description: as §1, §2, §3, §4

HOP-92 = assay: SRB growth assay, HOP-92; settings: Homo sapiens, HOP-92 (Non-Small Cell Lung), 48 hours, read-out: Percent viability
Description: as §1, §2, §3, §4

SK-MEL-5 = assay: SRB growth assay, SK-MEL-5; settings: Homo sapiens, SK-MEL-5 (Melanoma), 48 hours, read-out: Percent viability
Description: as §1, §2, §3, §4

OVCAR-8 = assay: SRB growth assay, OVCAR-8; settings: Homo sapiens, OVCAR-8 (Ovarian), 48 hours, read-out: Percent viability
Description: as §1, §2, §3, §4

KM12 = assay: SRB growth assay, KM12; settings: Homo sapiens, KM12 (Colon), 48 hours, read-out: Percent viability
Description: as §1, §2, §3, §4

OVCAR-5 = assay: SRB growth assay, OVCAR-5; settings: Homo sapiens, OVCAR-5 (Ovarian), 48 hours, read-out: Percent viability
Description: as §1, §2, §3, §4

SF-268 = assay: SRB growth assay, SF-268; settings: Homo sapiens, SF-268 (CNS), 48 hours, read-out: Percent viability
Description: as §1, §2, §3, §4

SMILES: COc1cccc2c1C(=O)c1c(O)c3c(c(O)c1C2=O)C[C@@](O)(C(=O)CO)C[C@@H]3O[C@H]1C[C@H](N)[C@H](O)[C@H](C)O1 [Doxorubicin, reference compound]
- viability at 10 µM (SF-295): 11.2%
- viability at 10 µM (NCI-H226): 34.2%
- viability at 10 µM (SK-OV-3): 47.8%
- viability at 10 µM (HS 578T): 51.5%
- viability at 10 µM (MDA-MB-231): 41.8%
- viability at 10 µM (HL-60(TB)): 25%
- viability at 10 µM (T-47D): 37.5%
- viability at 10 µM (ACHN): 40.2%
- viability at 10 µM (RXF 393): 8.68%
- viability at 10 µM (MCF7): 69.1%
- viability at 10 µM (HCT-15): 31.1%
- viability at 10 µM (EKVX): 35.5%
- viability at 10 µM (A549): 86.8%
- viability at 10 µM (NCI-H322M): 42.6%
- viability at 10 µM (UO-31): 28.2%
- viability at 10 µM (K-562): 17.1%
- viability at 10 µM (MDA-MB-468): 45.8%
- viability at 10 µM (HOP-92): 98.5%
- viability at 10 µM (SK-MEL-5): 7.01%
- viability at 10 µM (OVCAR-8): 15%
- viability at 10 µM (KM12): 71.8%
- viability at 10 µM (OVCAR-5): 57.1%
- viability at 10 µM (SF-268): 6.91%

SMILES: FC(F)(F)c1cn(CC2CCNCC2)c2ncnc(Cl)c12 [NUCC-0000381]
- viability at 10 µM (SF-295): 44.4%
- viability at 10 µM (NCI-H226): 54.9%
- viability at 10 µM (SK-OV-3): 56.5%
- viability at 10 µM (HS 578T): 53.9%
- viability at 10 µM (MDA-MB-231): 48.5%
- viability at 10 µM (HL-60(TB)): 25.8%
- viability at 10 µM (T-47D): 60.8%
- viability at 10 µM (ACHN): 23.3%
- viability at 10 µM (RXF 393): 12%
- viability at 10 µM (MCF7): 89.8%
- viability at 10 µM (HCT-15): 40.4%
- viability at 10 µM (EKVX): 57.5%
- viability at 10 µM (A549): 28.2%
- viability at 10 µM (NCI-H322M): 68.1%
- viability at 10 µM (UO-31): 19.7%
- viability at 10 µM (K-562): 8.38%
- viability at 10 µM (MDA-MB-468): 102%
- viability at 10 µM (HOP-92): 56.8%
- viability at 10 µM (SK-MEL-5): 100%
- viability at 10 µM (OVCAR-8): 31.7%
- viability at 10 µM (KM12): 31%
- viability at 10 µM (OVCAR-5): 76.8%
- viability at 10 µM (SF-268): 3.37%

SMILES: CS(=O)(=O)N1CCC(Cn2cc(C(F)(F)F)c3c(Cl)ncnc32)CC1 [NUCC-0000383]
- viability at 10 µM (SF-295): 56.2%
- viability at 10 µM (NCI-H226): 29.5%
- viability at 10 µM (SK-OV-3): 74.2%
- viability at 10 µM (HS 578T): 50.1%
- viability at 10 µM (MDA-MB-231): 33.9%
- viability at 10 µM (HL-60(TB)): 22.5%
- viability at 10 µM (T-47D): 63.3%
- viability at 10 µM (ACHN): 77.8%
- viability at 10 µM (RXF 393): 7.81%
- viability at 10 µM (MCF7): 108%
- viability at 10 µM (HCT-15): 38.8%
- viability at 10 µM (EKVX): 84.6%
- viability at 10 µM (A549): 100%
- viability at 10 µM (NCI-H322M): 53.8%
- viability at 10 µM (UO-31): 3.37%
- viability at 10 µM (K-562): 10.2%
- viability at 10 µM (MDA-MB-468): 93.8%
- viability at 10 µM (HOP-92): 97.6%
- viability at 10 µM (SK-MEL-5): 6.11%
- viability at 10 µM (OVCAR-8): 73.9%
- viability at 10 µM (KM12): 99.5%
- viability at 10 µM (OVCAR-5): 104%
- viability at 10 µM (SF-268): 1.77%

— patent US9981968B2, “Substituted pyrrolo[2,3-d]pyrimidines for the treatment of cancer and proliferative disorders” (Northwestern University, priority 2013, dated 2018)
